According to patent US9290528B1, “Light-activated compounds” (University of Kentucky Research Foundation, priority 2013, dated 2016):

Assays:
Log P = type: physicochemical
pUC19 plasmid DNA = pUC19 plasmid DNA damage by gel electrophoresis (Example 4); type: biochemical
Protocol: Their DNA damaging properties were assessed with pUC19 plasmid DNA using gel electrophoresis. […] Samples were then incubated for 24 hours at room temperature protected from light. Controls were prepared to simulate single and double strand DNA breaks, and the DNA samples resolved on agarose gels. Samples were resolved using 1% agarose gels prepared in tris-acetate (TA) buffer. Each lane was loaded with 0.3 μg of pUC19 and the samples run for 90 minutes at […]. The gels were stained with 500 ng/mL ethidium bromide in TA buffer at room temperature for 40 minutes. […] In contrast, 10 is a more hydrophilic molecule, and the negatively charged sulfonate functional groups were anticipated to cause electrostatic repulsions between the complex and the negatively charged backbone of the DNA. DNA precipitation or smearing was not observed with up to 500 μM of […] (FIG. 12B).

HL60 cells [1] = experiment: Cell viability as a function of time; type: cell-based, human; conditions: irradiated
HL60 cells [2] = experiment: Mitochondrial membrane potential (TMRE); type: cell-based, human
Text: FIGS. 14A to 14D includes charts showing mitochondrial potential and cell viability of HL60 cells as a function of time for (FIG. 14A) 9, dark, (FIG. 14B) 9, irradiated; (FIG. 14C) 10, dark; (FIG. 14D) 10, irradiated. TMRE was used to quantify membrane potential; values are relative to a no-compound control value of 100.
TMRE is a cationic dye that accumulates in active motochondria as a result of the negative membrane potential (Δψm).

A549 cells = experiment: Uptake and subcellular localization by Apoptome microscopy; type: cell-based, human
Protocol: The emission of 9 and 10 was measured in A549 cells using an Apoptome microscope. The relative rates of uptake of each of the complexes were analyzed as a function of time, and both 9 and 10 were visible inside cells as early as 2 hours after compound addition, consistent with the flow data and the ICP-OES results. Images were taken at 2, 8, 18 and 24 hours, and intracellular levels of both complexes appeared to plateau around 8 hours.
Differences in the intracellular localization of 9 and 10 were evaluated by determining colocalization of luminescence of the compound and fluorescent markers of organelles in A549 cells. Overlap in signals between the compounds, cellular nucleus, mitochondria and lysosome was measured over a 24 hour period.

HL60 cells [3] = experiment: Western blot of PARP and caspase 3 cleavage; type: cell-based, human
Protocol: Given the different cellular localization properties and time profiles for cell death induced by 9 and 10, the mechanism of cell death was investigated. Indicators of apoptotic cell death (activation of PARP and caspase 3 through proteolysis) were determined in HL60 cells treated with either 9 or 10 (FIGS. 15A and 15B).
The generation of an alternate 55 kDa PARP fragment was determined by immunoblot as a marker for necrosis with 10% (v/v) ethanol used as a control that induces necrosis.

HL60 cells [4] = experiment: Genomic DNA laddering by gel electrophoresis; type: cell-based, human; conditions: dark / not irradiated
Text: To further analyze the mechanisms of cell death induced by 9 and 10, the degradation pattern of genomic DNA was investigated. DNA laddering was observed as a result of DNA fragmentation stemming from the execution phase of apoptosis. In contrast, necrotic cell death lacked this characteristic laddering effect, allowing differentiation between these two mechanisms. […] This laddering was absent in the cells treated with ethanol and compounds 9 and 10 in the dark. […] In contrast, given the cytotoxicity of 9 in the dark and the presence of the 55 kDa PARP fragment, it appears that necrotic cell death is one pathway for […]. For compound 10 the absence of DNA laddering may be a result of the lack of cytotoxicity of the negatively charged compound.

CT DNA = experiment: DNA binding affinity (Kb) with CT DNA; parameters: species or system calf; conditions: racemic mixtures
Text: Intercalation of both complexes was consistent with the reduced mobility of supercoiled plasmid DNA in agarose gels, and the modulation of the absorption spectra in the presence of DNA, characterized by hypochromism of both the π-π* of the dppz ligand and the MLCT transitions, with maximal effect at a ratio of 2:1 DNA base pairs to metal center. Thus, the strained complex retained DNA-sensing capabilities of other Ru^II “light-switch” molecules and photochemical reactivity.

Substance | Log P (Log P) | DNA damage when exposed to light (pUC19 plasmid DNA; 40 J/cm^2 >400 nm light) | concentrations at which precipitation of the complex with the DNA was observed (pUC19 plasmid DNA; light and dark) | time to cell death after irradiation (HL60 cells [1]) | cell viability (HL60 cells [1]; 2 hours) | effect on mitochondrial potential (HL60 cells [2]; dark and irradiated) | mitochondrial function (HL60 cells [2]; dark, 2 hours post treatment) | mitochondrial function (HL60 cells [2]; within 2 hours of irradiation) | time at which intracellular levels plateau (A549 cells) | PARP and caspase 3 activation (HL60 cells [3]; absence of light) | PARP and caspase 3 activation (HL60 cells [3]; irradiated) | 55 kDa PARP fragment (marker for necrosis) (HL60 cells [3]; protected from light and irradiated) | genomic DNA laddering (HL60 cells [4]) | Kb (CT DNA)
Ru(bathophenanthroline)3 [Compound 9] | 1.8 ± 0.02 | induced single strand DNA breaks | above 31.3 μM | ≤ 2 h | about 0% | rapid and complete depolarization of mitochondria | completely impaired | about 0% | around 8 hours | after 18 and 24 hours and to a lesser degree | induced the proteolytic activation of both PARP and caspase 3 within 2 hours of irradiation | produced this fragment at significant levels | absent | –
Ru(bpy)2dppz [Compound 7, reference compound] | – | – | – | – | – | – | – | – | – | – | – | – | – | 1e+07 M⁻¹
